Experimental data reported in patent publication US9179694B2, “Method and composition for enhancing milk production and milk component concentrations” (PURINA ANIMAL NUTRITION LLC, priority 2003, dated 2015).
Marks after values point to notes of the source that are not given here.

Test: Fat content of produced milk in sorbitol feeding trials
Assay type: in vivo, Holstein cows
Details: for Fat in Produced Milk: Pre-Partum Trial #1 (75/0/0 g/day in wk −3..−1/+1..+4/+5..+8)
Experimental: To determine the weight percent total fat, wet basis, in a sample, the actual weight of fat in the sample is determined in accordance with Method #974.09 (33.7.18) of Official Methods of Analysis, Association of Official Analytical Chemists (AOAC) (16th Ed., 1995). The weight percent total fat, wet basis, is then calculated by dividing the actual weight of fat in the sample by the actual weight of the sample. Each cow of each of the six different trials (Control Trial #1, Control Trial #2, Pre-Partum Trial #1, Pre-Partum Trial #2, Pre/Post Trial #1, and Pre/Post Trial #2) was milked three times daily and the weight of produced milk by each cow was recorded at each milking. The milk from each cow was sampled once per week (⅓ of the sample volume from each of the three milkings occurring on the weekly milk sampling day) and was analyzed for true protein, total fat, lactose, and total solids, as detailed in the property determination and characterization techniques presented above. Additionally, samples of blood were periodically obtained from each cow during the four trials (Control Trial 2, Pre-Partum Trial #2, Pre/Post Trial #1, and Pre/Post Trial #2) encompassed in Example Two and were analyzed for non-esterified fatty acid (NEFA) content as detailed in the property determination and characterization techniques presented above. No NEFA analysis was conducted on the cows employed in Control Trial #1 or Pre-Partum Trial #1 that are the subject of Example One. Example One includes Control Trial #1 and Pre-Partum Trial #1. Both primiparious cows and multiparious cows were included in Control Trial #1 and Pre-Partum Trial #1. Five primiparious cows and fifteen multiparious cows were included in Control Trial #1; likewise, five primiparious cows and fifteen multiparious cows were included in Pre-Partum Trial #1. All cows included in Control Trial #1 and Pre-Partum Trial #1 were Holsteins. Example Two includes Control Trial #2, Pre-Partum Trial #2, Pre/Post Trial #1, and Pre/Post Trial #2. Only multiparious, Holstein cows were included in Control Trial #2, […], Pre/Post Trial #1, and Pre/Post Trial #2. Eighteen multiparious cows were included in both Control Trial #2 and Pre-Partum Trial #2, while sixteen multiparious cows were included in Pre/Post Trial #1 and seventeen multiparious cows were included in Pre/Post Trial #2.

## OC[C@@H](O)[C@@H](O)[C@H](O)[C@@H](O)CO [sorbitol]
Multiparious cows, weeks +1 through +8
  Fat in Produced Milk: 3.50 wt %
Primiparious cows, weeks +1 through +8
  Fat in Produced Milk: 4.2 wt %
Pre-Partum Trial #1 (75 g/day wk −3..−1 only) versus Control Trial #1, primiparious cows, weeks +1 through +8
  increase in fat concentration in the produced milk: 11.7%
Pre-Partum Trial #2 (75/0/100 g/day in wk −3..−1/+1..+4/+5..+8), multiparious cows, week +1
  Fat Content of Produced Milk: 4.91^a weight %
Pre-Partum Trial #2 (75/0/100 g/day in wk −3..−1/+1..+4/+5..+8), multiparious cows, week +2
  Fat Content of Produced Milk: 4.50 weight %
Pre-Partum Trial #2 (75/0/100 g/day in wk −3..−1/+1..+4/+5..+8), multiparious cows, week +3
  Fat Content of Produced Milk: 4.09 weight %
Pre-Partum Trial #2 (75/0/100 g/day in wk −3..−1/+1..+4/+5..+8), multiparious cows, week +4
  Fat Content of Produced Milk: 3.41^a weight %
Pre-Partum Trial #2 (75/0/100 g/day in wk −3..−1/+1..+4/+5..+8), multiparious cows, week +5
  Fat Content of Produced Milk: 3.35 weight %
Pre-Partum Trial #2 (75/0/100 g/day in wk −3..−1/+1..+4/+5..+8), multiparious cows, week +6
  Fat Content of Produced Milk: 3.17^a weight %
Pre-Partum Trial #2 (75/0/100 g/day in wk −3..−1/+1..+4/+5..+8), multiparious cows, week +7
  Fat Content of Produced Milk: 3.29 weight %
Pre-Partum Trial #2 (75/0/100 g/day in wk −3..−1/+1..+4/+5..+8), multiparious cows, week +8
  Fat Content of Produced Milk: 3.34^ab weight %
Pre-Partum Trial #2 (75/0/100 g/day in wk −3..−1/+1..+4/+5..+8), multiparious cows, weeks +1 through +4
  Fat Content of Produced Milk: 4.23^a weight %
Pre-Partum Trial #2 (75/0/100 g/day in wk −3..−1/+1..+4/+5..+8), multiparious cows, weeks +1 through +8
  Fat Content of Produced Milk: 3.75^a weight %
Pre-Partum Trial #2 (75/0/100 g/day in wk −3..−1/+1..+4/+5..+8), multiparious cows, weeks +5 through +8
  Fat Content of Produced Milk: 3.27^ab weight %
Pre/Post Trial #1 (150/125/100 g/day in wk −3..−1/+1..+4/+5..+8), multiparious cows, week +1
  Fat Content of Produced Milk: 5.49^ab weight %
Pre/Post Trial #1 (150/125/100 g/day in wk −3..−1/+1..+4/+5..+8), multiparious cows, week +1, two-trial comparison with Control Trial #2 (Table 23)
  Fat Content of Produced Milk: 5.49 weight %
Pre/Post Trial #1 (150/125/100 g/day in wk −3..−1/+1..+4/+5..+8), multiparious cows, week +2
  Fat Content of Produced Milk: 4.41 weight %
Pre/Post Trial #1 (150/125/100 g/day in wk −3..−1/+1..+4/+5..+8), multiparious cows, week +2, two-trial comparison with Control Trial #2 (Table 23)
  Fat Content of Produced Milk: 4.41 weight %
Pre/Post Trial #1 (150/125/100 g/day in wk −3..−1/+1..+4/+5..+8), multiparious cows, week +3
  Fat Content of Produced Milk: 4.22 weight %
Pre/Post Trial #1 (150/125/100 g/day in wk −3..−1/+1..+4/+5..+8), multiparious cows, week +3, two-trial comparison with Control Trial #2 (Table 23)
  Fat Content of Produced Milk: 4.22 weight %
Pre/Post Trial #1 (150/125/100 g/day in wk −3..−1/+1..+4/+5..+8), multiparious cows, week +4
  Fat Content of Produced Milk: 4.01^b weight %
Pre/Post Trial #1 (150/125/100 g/day in wk −3..−1/+1..+4/+5..+8), multiparious cows, week +4, two-trial comparison with Control Trial #2 (Table 23)
  Fat Content of Produced Milk: 4.01 weight %
Pre/Post Trial #1 (150/125/100 g/day in wk −3..−1/+1..+4/+5..+8), multiparious cows, week +5
  Fat Content of Produced Milk: 3.71 weight %
Pre/Post Trial #1 (150/125/100 g/day in wk −3..−1/+1..+4/+5..+8), multiparious cows, week +5, two-trial comparison with Control Trial #2 (Table 23)
  Fat Content of Produced Milk: 3.71 weight %
Pre/Post Trial #1 (150/125/100 g/day in wk −3..−1/+1..+4/+5..+8), multiparious cows, week +6
  Fat Content of Produced Milk: 3.69^b weight %
Pre/Post Trial #1 (150/125/100 g/day in wk −3..−1/+1..+4/+5..+8), multiparious cows, week +6, two-trial comparison with Control Trial #2 (Table 23)
  Fat Content of Produced Milk: 3.69 weight %
Pre/Post Trial #1 (150/125/100 g/day in wk −3..−1/+1..+4/+5..+8), multiparious cows, week +7
  Fat Content of Produced Milk: 3.45 weight %
Pre/Post Trial #1 (150/125/100 g/day in wk −3..−1/+1..+4/+5..+8), multiparious cows, week +7, two-trial comparison with Control Trial #2 (Table 23)
  Fat Content of Produced Milk: 3.45 weight %
Pre/Post Trial #1 (150/125/100 g/day in wk −3..−1/+1..+4/+5..+8), multiparious cows, week +8
  Fat Content of Produced Milk: 3.68^b weight %
Pre/Post Trial #1 (150/125/100 g/day in wk −3..−1/+1..+4/+5..+8), multiparious cows, week +8, two-trial comparison with Control Trial #2 (Table 23)
  Fat Content of Produced Milk: 3.68 weight %
Pre/Post Trial #1 (150/125/100 g/day in wk −3..−1/+1..+4/+5..+8), multiparious cows, weeks +1 through +4
  Fat Content of Produced Milk: 4.53^ab weight %
Pre/Post Trial #1 (150/125/100 g/day in wk −3..−1/+1..+4/+5..+8), multiparious cows, weeks +1 through +4, two-trial comparison with Control Trial #2 (Table 23)
  Fat Content of Produced Milk: 4.53 weight %
Pre/Post Trial #1 (150/125/100 g/day in wk −3..−1/+1..+4/+5..+8), multiparious cows, weeks +1 through +8
  Fat Content of Produced Milk: 4.09^ab weight %
Pre/Post Trial #1 (150/125/100 g/day in wk −3..−1/+1..+4/+5..+8), multiparious cows, weeks +1 through +8, two-trial comparison with Control Trial #2 (Table 23)
  Fat Content of Produced Milk: 4.09 weight %
Pre/Post Trial #1 (150/125/100 g/day in wk −3..−1/+1..+4/+5..+8), multiparious cows, weeks +5 through +8
  Fat Content of Produced Milk: 3.63^b weight %
Pre/Post Trial #1 (150/125/100 g/day in wk −3..−1/+1..+4/+5..+8), multiparious cows, weeks +5 through +8, two-trial comparison with Control Trial #2 (Table 23)
  Fat Content of Produced Milk: 3.63 weight %
Pre/Post Trial #1 (150/125/100 g/day) versus Control Trial #2, multiparious cows, weeks +1 through +8 (Table 23)
  increase in fat concentration in milk: 7.3%
Pre/Post Trial #1 (150/125/100 g/day) versus Control Trial #2, multiparious cows, weeks +5 through +8 (Table 23)
  increase in fat concentration in milk: 13.8%
Pre/Post Trial #1 (150/125/100 g/day) versus Pre/Post Trial #2 (75/75/100 g/day), multiparious cows, week +8
  greater fat concentration in milk: 17.2%
Pre/Post Trial #2 (75/75/100 g/day in wk −3..−1/+1..+4/+5..+8), multiparious cows, week +1
  Fat Content of Produced Milk: 6.23^b weight %
Pre/Post Trial #2 (75/75/100 g/day in wk −3..−1/+1..+4/+5..+8), multiparious cows, week +2
  Fat Content of Produced Milk: 4.73 weight %
Pre/Post Trial #2 (75/75/100 g/day in wk −3..−1/+1..+4/+5..+8), multiparious cows, week +3
  Fat Content of Produced Milk: 4.21 weight %
Pre/Post Trial #2 (75/75/100 g/day in wk −3..−1/+1..+4/+5..+8), multiparious cows, week +4
  Fat Content of Produced Milk: 3.87^b weight %
Pre/Post Trial #2 (75/75/100 g/day in wk −3..−1/+1..+4/+5..+8), multiparious cows, week +5
  Fat Content of Produced Milk: 3.89 weight %
Pre/Post Trial #2 (75/75/100 g/day in wk −3..−1/+1..+4/+5..+8), multiparious cows, week +6
  Fat Content of Produced Milk: 3.48^ab weight %
Pre/Post Trial #2 (75/75/100 g/day in wk −3..−1/+1..+4/+5..+8), multiparious cows, week +7
  Fat Content of Produced Milk: 3.47 weight %
Pre/Post Trial #2 (75/75/100 g/day in wk −3..−1/+1..+4/+5..+8), multiparious cows, week +8
  Fat Content of Produced Milk: 3.14^a weight %
Pre/Post Trial #2 (75/75/100 g/day in wk −3..−1/+1..+4/+5..+8), multiparious cows, weeks +1 through +4
  Fat Content of Produced Milk: 4.79^b weight %
Pre/Post Trial #2 (75/75/100 g/day in wk −3..−1/+1..+4/+5..+8), multiparious cows, weeks +1 through +8
  Fat Content of Produced Milk: 4.13^b weight %
Pre/Post Trial #2 (75/75/100 g/day in wk −3..−1/+1..+4/+5..+8), multiparious cows, weeks +5 through +8
  Fat Content of Produced Milk: 3.43^ab weight %
Pre/Post Trial #2 (75/75/100 g/day) versus Pre-Partum Trial #2 (75/0/100 g/day), multiparious cows, weeks +1 through +4
  greater fat concentration in milk: 13.24%
Pre/Post Trial #2 (75/75/100 g/day) versus Pre-Partum Trial #2 (75/0/100 g/day), multiparious cows, weeks +1 through +8
  greater fat concentration in milk: 10.1%
Average of means of Pre-Partum Trial #2, Pre/Post Trial #1 and Pre/Post Trial #2 versus Control Trial #2, multiparious cows, weeks +1 through +8
  increase in fat concentration in milk: 4.7%
Average of means of Pre-Partum Trial #2, Pre/Post Trial #1 and Pre/Post Trial #2 versus Control Trial #2, multiparious cows, weeks +5 through +8
  increase in fat concentration in milk: 7.9%
